According to US12240862B2, “Inhibitors of peptidylarginine deiminases” (Gilead Sciences, Inc., priority 2020, dated 2025):

Molecular target: T1, human PAD4 (Homo sapiens, UniProt Q9UM07)
T1 construct: human PAD4 (NM_012387), A2P663, was PCR amplified; His-SUMO (N, cleaved yes); made in house; host or cells: E. coli BL21(DE3)
Experiment: In vitro PAD4 BAEE biochemical assay
Conditions: human PAD4, BAEE substrate; 5 nM PAD4, 2 mM calcium chloride, 3 mM BAEE; geometric mean of multiple experiments
In short: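 Ammonia release from BAEE deimination monitored by o-phthalaldehyde amine coupling (1 h, 25 °C) after EDTA stop. Final conditions: 5 nM tag-free recombinant human PAD4 (E. coli), 2 mM CaCl2, 3 mM BAEE, pH 7.6 MOPS with DTT; 30 min compound preincubation, then 2 h reaction at 25 °C.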

T1 sequence (Q9UM07 2-663): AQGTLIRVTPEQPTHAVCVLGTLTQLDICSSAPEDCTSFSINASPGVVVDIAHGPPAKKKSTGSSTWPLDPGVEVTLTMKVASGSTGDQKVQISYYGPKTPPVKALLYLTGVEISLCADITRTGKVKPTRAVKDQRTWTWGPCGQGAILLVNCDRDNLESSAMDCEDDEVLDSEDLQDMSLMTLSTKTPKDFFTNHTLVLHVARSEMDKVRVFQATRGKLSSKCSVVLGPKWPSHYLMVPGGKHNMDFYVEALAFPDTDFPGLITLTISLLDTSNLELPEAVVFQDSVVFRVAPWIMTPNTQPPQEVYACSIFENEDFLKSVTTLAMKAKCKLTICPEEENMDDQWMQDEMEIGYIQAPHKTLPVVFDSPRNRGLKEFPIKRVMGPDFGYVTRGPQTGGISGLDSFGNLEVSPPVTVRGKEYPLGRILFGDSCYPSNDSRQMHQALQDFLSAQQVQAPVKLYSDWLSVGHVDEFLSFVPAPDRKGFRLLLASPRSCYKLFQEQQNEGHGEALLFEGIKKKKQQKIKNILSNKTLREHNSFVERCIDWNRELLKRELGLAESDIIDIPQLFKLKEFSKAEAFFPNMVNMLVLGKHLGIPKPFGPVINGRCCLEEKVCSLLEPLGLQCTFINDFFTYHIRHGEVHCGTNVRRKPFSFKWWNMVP

Row | Compound | IC50 [nM]
1 | CCc1c(-c2cc3ccc(N(C(F)F)S(C)(=O)=O)nc3n2CC2CC2)nc2cc(C(=O)N3CC[C@H](O)[C@H](N)C3)cc(OC)n12 [Example 404, ~{N}-[2-[7-[(3~{R},4~{S})-3-amino-4-hydroxypiperidine-1-carbonyl]-3-ethyl-5-methoxyimidazo[1,2-a]pyridin-2-yl]-1-(cyclopropylmethyl)pyrrolo [2,3-b]pyridin-6-yl]-~{N}-(difluoromethyl) methanesulfonamide] | 10600
2 | COc1cc(C(=O)N2[C@H]3CC[C@@H]2[C@H](N)C3)cc2nc(-c3cc4ccc(N5CCCC(c6ccccc6)S5(=O)=O)nc4n3CC3CC3)c(C)n12 (some centres unmarked) [Example 469, [(1~{R},2~{R},4~{S})-2-amino-7-azabicyclo [2.2.1]heptan-7-yl]-[2-[1-(cyclopropylmethyl)-6-(1,1-dioxo-6-phenylthiazinan-2-yl)pyrrolo[2,3-b]pyridin-2-yl]-5-methoxy-3-methylimidazo[1,2-a]pyridin-7-yl]methanone] | 781
3 | COc1cc(C(=O)N2C[C@H](N)[C@@H](F)C2)cc2nc(-c3cc4ccc(N(C(F)F)S(C)(=O)=O)nc4n3CC3CC3)c(C)n12 [Example 290, ~{N}-[2-[7-[(3~{S}, 4~{S})-3-amino-4-fluoropyrrolidine-1-carbonyl]-5-methoxy-3-methylimidazo [1,2-a]pyridin-2-yl]-1-(cyclopropylmethyl)pyrrolo [2,3-b]pyridin-6-yl]-~{N}-(difluoromethyl) methanesulfonamide] | 9870
4 | COc1cc(C(=O)N2[C@H]3CC[C@@H]2[C@H](N)C3)cc2nc(-c3cc4ccc(C(CC(=O)N5CCCC5)C5CC5)nc4n3CC3CC3)c(C)n12 (some centres unmarked) [Example 542, 3-[2-[7-[(1~{R},2~{R}, 4~{S})-2-amino-7-azabicyclo[2.2.1]heptane-7-carbonyl]-5-methoxy-3-methylimidazo[1,2-a]pyridin-2-yl]-1-(cyclopropylmethyl)pyrrolo[2,3-b]pyridin-6-yl]-3-cyclopropyl-1-pyrrolidin-1-ylpropan-1-one] | 119
5 | COc1cc(C(=O)N2C[C@H](N)C[C@@H]2C)cc2nc(-c3cc4ccc(N(C(F)F)S(C)(=O)=O)nc4n3CC3CC3)c(C)n12 [Example 354, N-[2-[7-[(2S,4R)-4-amino-2-methyl-pyrrolidine-1-carbonyl]-5-methoxy-3-methyl-imidazo[1,2-a]pyridin-2-yl]-1-(cyclopropylmethyl)pyrrolo[2,3-b]pyridin-6-yl]-N-(difluoromethyl) methanesulfonamide] | 1890
6 | CCc1ccc2cc(-c3nc4cc(C(=O)N5[C@H]6CC[C@@H]5[C@H](N)C6)cc(OC)n4c3C)n(CCO)c2n1 [Example 497, [(1~{R},2~{R},4~{S})-2-amino-7-azabicyclo [2.2.1]heptan-7-yl]-[2-[6-ethyl-1-(2-hydroxyethyl)pyrrolo[2,3-b]pyridin-2-yl]-5-methoxy-3-methylimidazo [1,2-a]pyridin-7-yl]methanone] | 1230
7 | COc1cc(C(=O)N2CC[C@@H](OC)[C@@H](N)C2)cc2nc(-c3cc4ccc([C@@H](C)NC(=O)c5ccccc5)nc4n3CC3CC3)c(C)n12 [Example 114, ~{N}-[(1~{R})-1-[2-[7-[(3~{S},4~{R})-3-amino-4-methoxypiperidine-1-carbonyl]-5-methoxy-3-methylimidazo [1,2-a]pyridin-2-yl]-1-(cyclopropylmethyl)pyrrolo [2,3-b]pyridin-6-yl]ethyl]benzamide] | 220
8 | COc1cc(C(=O)N2CCC[C@@H](N)C2)cc2nc(-c3cc4ccc(C(C)n5cc(C#N)cn5)nc4n3CC3CC3)c(C)n12 (some centres unmarked) [Example 548, 1-[1-[2-[7-[(3~{R})-3-aminopiperidine-1-carbonyl]-5-methoxy-3-methylimidazo[1,2-a]pyridin-2-yl]-1-(cyclopropylmethyl)pyrrolo[2,3-b]pyridin-6-yl]ethyl] pyrazole-4-carbonitrile] | 532
9 | COc1cc(C(=O)N2CCC[C@@H](N)C2)cc2nc(-c3cc4ccc(-c5cccc6c5CNC6=O)nc4n3CC3CC3)c(C)n12 [Example 602, 4-[2-[7-[(3~{R})-3-aminopiperidine-1-carbonyl]-5-methoxy-3-methylimidazo[1,2-a]pyridin-2-yl]-1-(cyclopropylmethyl)pyrrolo[2,3-b]pyridin-6-yl]-2,3-dihydroisoindol-1-one] | 2150
10 | COc1cc(C(=O)N2[C@H]3CC[C@@H]2[C@H](N)C3)cc2nc(-c3cc4ccc(N5CCNCCS5(=O)=O)nc4n3CC3CC3)c(C)n12 [Example 450, [(1~{R},2~{R},4~{S})-2-amino-7-azabicyclo [2.2.1]heptan-7-yl]-[2-[1-(cyclopropylmethyl)-6-(1,1-dioxo-1,2,5-thiadiazepan-2-yl)pyrrolo[2,3-b]pyridin-2-yl]-5-methoxy-3-methylimidazo[1,2-a]pyridin-7-yl]methanone] | 21.6
11 | COc1cc(C(=O)N2CCCC(C)(N)C2)cc2nc(-c3cc4ccc([C@@H](C)NC(=O)C56CC(F)(C5)C6)nc4n3CC3CC3)c(C3CC3)n12 (some centres unmarked) [Example 124, ~{N}-[(1~{R})-1-[2-[7-(3-amino-3-methylpiperidine-1-carbonyl)-3-cyclopropyl-5-methoxyimidazo [1,2-a]pyridin-2-yl]-1-(cyclopropylmethyl)pyrrolo [2,3-b]pyridin-6-yl]ethyl]-3-fluorobicyclo[1.1.1]pentane-1-carboxamide] | 13000

Further compounds by falling IC50, results first:

Row | IC50 [nM] | Compound
12 | 114 | COc1cc(C(=O)N2[C@H]3CC[C@@H]2[C@H](N)C3)cc2nc(-c3cc4ccc(-c5cccnc5-c5cncs5)nc4n3CC3CC3)c(C)n12 [Example 567, [(1~{R},2~{R},4~{S})-2-amino-7-azabicyclo [2.2.1]heptan-7-yl]-[2-[1-(cyclopropylmethyl)-6-[2-(1,3-thiazol-5-yl)pyridin-3-yl]pyrrolo[2,3-b]pyridin-2-yl]-5-methoxy-3-methylimidazo[1,2-a]pyridin-7-yl]methanone]
13 | 104 | COc1cc(C(=O)N2CCC[C@@H](N)C2)cc2nc(-c3cc4ccc(N(C(F)F)S(C)(=O)=O)nc4n3CC3CC3)c(C3CC3)n12 [Example 391, ~{N}-[2-[7-[(3~{R})-3-aminopiperidine-1-carbonyl]-3-cyclopropyl-5-methoxyimidazo [1,2-a]pyridin-2-yl]-1-(cyclopropylmethyl)pyrrolo [2,3-b]pyridin-6-yl]-~{N}-(difluoromethyl) methanesulfonamide]
14 | 100 | COc1cc(C(=O)N2[C@H]3CC[C@@H]2[C@H](N)C3)cc2nc(-c3cc4ccc(N5CCCOC5=O)nc4n3CC3CC3)c(C)n12 [Example 464, 3-[2-[7-[(1~{R},2~{R}, 4~{S})-2-amino-7-azabicyclo[2.2.1]heptane-7-carbonyl]-5-methoxy-3-methylimidazo[1,2-a]pyridin-2-yl]-1-(cyclopropylmethyl)pyrrolo [2,3-b]pyridin-6-yl]-1,3-oxazinan-2-one]
15 | 61.3 | COCc1nn(C)cc1C(=O)N[C@H](C)c1ccc2cc(-c3nc4cc(C(=O)N5[C@H]6CC[C@@H]5[C@H](N)C6)cc(OC)n4c3C)n(CC3CC3)c2n1 [Example 23, ~{N}-[(1~{R})-1-[2-[7-[(1~{R},2~{R},4~{S})-2-amino-7-azabicyclo [2.2.1]heptane-7-carbonyl]-5-methoxy-3-methylimidazo [1,2-a]pyridin-2-yl]-1-(cyclopropylmethyl)pyrrolo[2,3-b]pyridin-6-yl]ethyl]-3-(methoxymethyl)-1-methylpyrazole-4-carboxamide]
16 | 58.3 | COC(=O)C12CC(C(=O)N[C@H](C)c3ccc4cc(-c5nc6cc(C(=O)N7[C@H]8CC[C@@H]7[C@H](N)C8)cc(OC)n6c5C)n(CC5CC5)c4n3)(C1)C2 [Example 159, methyl 3-[[(1~{R})-1-[2-[7-[(1~{R},2~{R},4~{S})-2-amino-7-azabicyclo[2.2.1]heptane-7-carbonyl]-5-methoxy-3-methylimidazo [1,2-a]pyridin-2-yl]-1-(cyclopropylmethyl)pyrrolo [2,3-b]pyridin-6-yl]ethyl]carbamoyl]bicyclo[1.1.1] pentane-1-carboxylate]
17 | 47.2 | COc1cc(C(=O)N2[C@H]3CC[C@@H]2[C@H](N)C3)cc2nc(-c3cc4ccc([C@@H](C)NC(=O)c5cnccn5)nc4n3CC3CC3)c(C)n12 [Example 83]
18 | 39.2 | COc1cc(C(=O)N2[C@H]3CC[C@@H]2[C@H](N)C3)cc2nc(-c3cc4ccc([C@@H](C)NC(=O)c5cnn(C)c5Cl)nc4n3CC3CC3)c(C)n12 [Example 75, ~{N}-[(1~{R})-1-[2-[7-[(1~{R},2~{R},4~{S})-2-amino-7-azabicyclo[2.2.1]heptane-7-carbonyl]-5-methoxy-3-methylimidazo [1,2-a]pyridin-2-yl]-1-(cyclopropylmethyl)pyrrolo [2,3-b]pyridin-6-yl]ethyl]-5-chloro-1-methylpyrazole-4-carboxamide]
19 | 32.4 | COc1cc(C(=O)N2[C@H]3CC[C@@H]2[C@H](N)C3)cc2nc(-c3cc4ccc([C@@H](C)NC(=O)N5CCC(C(C)(C)O)C5)nc4n3CC3CC3)c(C)n12 (some centres unmarked) [Example 203, ~{N}-[(1~{R})-1-[2-[7-[(1~{R},2~{R},4~{S})-2-amino-7-azabicyclo[2.2.1]heptane-7-carbonyl]-5-methoxy-3-methylimidazo [1,2-a]pyridin-2-yl]-1-(cyclopropylmethyl)pyrrolo [2,3-b]pyridin-6-yl]ethyl]-3-(2-hydroxypropan-2-yl) pyrrolidine-1-carboxamide]
20 | 24.3 | COc1cc(C(=O)N2[C@H]3CC[C@@H]2[C@H](N)C3)cc2nc(-c3cc4ccc(N5[C@@H](C)COCS5(=O)=O)nc4n3CC3CC3)c(C)n12 [Example 439, [(1~{R},2~{R},4~{S})-2-amino-7-azabicyclo [2.2.1]heptan-7-yl]-[2-[1-(cyclopropylmethyl)-6-[(5~{S})-5-methyl-3,3-dioxo-1,3,4-oxathiazinan-4-yl]pyrrolo [2,3-b]pyridin-2-yl]-5-methoxy-3-methylimidazo [1,2-a]pyridin-7-yl] methanone]
